Measured values reported in US11311013B2, “Benzimidazole compound or salt thereof, agricultural and horticultural insecticidal and acaricidal agent containing said compound, and method for using same” (NIHON NOHYAKU CO., LTD., priority 2018, dated 2022).

tested on: Two-spotted spider mite (Tetranychus urticae); assay: Acaricidal action on two-spotted spider mite, kidney bean leaf disk spray; assay type: in vivo; details: 500 ppm, 25° C., two days after treatment
Experimental: Acaricidal Action on Two-Spotted Spider Mite (Tetranychus urticae)
Leaf disk having a diameter of 2 cm was prepared by leaves of kidney bean, and the leaf disk was placed on the wetted filter paper. Adult hens of two-spotted spider mite were inoculated on the wetted filter paper, and then 50 ml of an agrochemical dispersion, prepared by diluting a formulation containing the benzimidazole compound represented by the general formula (1) of the present invention or salt thereof as an active ingredient to adjust each of the concentrations to 500 ppm, was sprayed on turntable uniformly. After the spraying, it was allowed to stand in a thermostatic chamber at 25° C. Two days after the treatment of an agrochemical dispersion, the dead mites were counted, the corrected mortality rate was calculated according to the formula shown below, and the acaricidal efficacy was evaluated according to the criteria of Test Example 2. This test was conducted in duplicate using 10 adult hens of two-spotted spider per plot. Corrected mortality (%)=(Number of dead mites in a non-treatment plot−Number of dead mites in a treatment plot)/(Number of dead mites in a non-treatment plot)×100 [Expression 4]

SMILES | acaricidal efficacy (corrected mortality rate) activity level
CCS(=O)(=O)n1c(-c2ccc(OCC(F)(F)F)nc2)nc2ccccc21 [Compound 1-1] | D or higher
CCS(=O)(=O)n1c(-c2ccc(OCC(F)(F)C(F)(F)F)nc2)nc2ccccc21 [Compound 1-2, 2-(2-(2,2,3,3,3-pentafluoropropyloxy)pyridin-5-yl)-1-ethanesulfonyl benzimidazole] | D or higher
CS(=O)(=O)n1c(-c2ccc(OCC(F)(F)C(F)(F)F)nc2)nc2ccccc21 [Compound 1-3] | D or higher
CCCS(=O)(=O)n1c(-c2ccc(OCC(F)(F)C(F)(F)F)nc2)nc2ccccc21 [Compound 1-4] | D or higher
CCCCS(=O)(=O)n1c(-c2ccc(OCC(F)(F)C(F)(F)F)nc2)nc2ccccc21 [Compound 1-5] | D or higher
CCS(=O)(=O)n1c(-c2ccc(OCC(F)(F)C(F)(F)F)nc2)nc2ccc(Br)cc21 [Compound 1-10] | D or higher
CCS(=O)(=O)n1c(-c2ccc(OCC(F)(F)C(F)(F)F)nc2)nc2cc(Cl)ccc21 [Compound 1-12] | D or higher
CCS(=O)(=O)n1c(-c2ccc(OCC(F)(F)C(F)(F)F)nc2)nc2ccc(Cl)cc21 [Compound 1-13] | D or higher
CCS(=O)(=O)n1c(-c2ccc(OCC(F)(F)C(F)(F)F)nc2)nc2cc(Cl)c(Cl)cc21 [Compound 1-14] | D or higher
CCS(=O)(=O)n1c(-c2ccc(OCC(F)(F)C(F)(F)F)nc2)nc2cc(Br)c(Br)cc21 [Compound 1-15] | D or higher
CCS(=O)(=O)n1c(-c2ccc(OCC(F)(F)C(F)(F)F)nc2)nc2cc(C)c(C)cc21 [Compound 1-17] | D or higher
CCS(=O)(=O)n1c(-c2cnc(OCC(F)(F)C(F)(F)F)c(Cl)c2)nc2ccccc21 [Compound 1-18] | D or higher
CCS(=O)(=O)n1c(-c2ccc(OCC(F)(F)C(F)F)nc2)nc2ccccc21 [Compound 1-19] | D or higher
CCS(=O)(=O)n1c(-c2ccc(OCC(F)(F)C(F)(F)C(F)(F)F)nc2)nc2ccccc21 [Compound 1-20] | D or higher
CCS(=O)(=O)n1c(-c2ccc(OCC(F)(F)C(F)(F)C(F)(F)F)nc2)nc2ccc(Br)cc21 [Compound 1-22] | D or higher
CCS(=O)(=O)n1c(-c2ccc(OC(C(F)(F)F)C(F)(F)F)nc2)nc2ccccc21 [Compound 1-23] | D or higher
CCS(=O)(=O)n1c(-c2ccc(OCC(F)(F)C(F)C(F)(F)F)nc2)nc2ccccc21 (centres unmarked) [Compound 1-24] | D or higher
CCS(=O)(=O)n1c(-c2ccc(Oc3ccc(SC(F)(F)F)cc3)nc2)nc2ccccc21 [Compound 1-40] | D or higher
CCS(=O)(=O)n1c(-c2ccc(Oc3ccc([S+]([O-])C(F)(F)F)cc3)nc2)nc2ccccc21 (centres unmarked) [Compound 1-41] | D or higher
CCS(=O)(=O)n1c(-c2ccc(Oc3ccc(S(=O)(=O)C(F)(F)F)cc3)nc2)nc2ccccc21 [Compound 1-42] | D or higher
CCS(=O)(=O)n1c(-c2ccc(OCc3ccc(SC(F)(F)F)cc3)nc2)nc2ccccc21 [Compound 1-43] | D or higher
CCS(=O)(=O)n1c(-c2ccc(OCc3ccc([S+]([O-])C(F)(F)F)cc3)nc2)nc2ccccc21 (centres unmarked) [Compound 1-44] | D or higher
O=S(=O)(CCl)n1c(-c2ccc(OCC(F)(F)C(F)(F)F)nc2)nc2ccccc21 [Compound 1-45] | D or higher
CCS(=O)(=O)n1c(-c2ccc(Oc3ccc(OC(F)(F)F)cc3)nc2)nc2ccccc21 [Compound 1-46] | D or higher
CCCCOc1ccc(-c2nc3ccccc3n2S(=O)(=O)CC)cn1 [Compound 1-47] | D or higher

SMILES | acaricidal efficacy (corrected mortality rate) activity level
CCCCCOc1ccc(-c2nc3ccccc3n2S(=O)(=O)CC)cn1 [Compound 1-48] | D or higher
CCCCCCOc1ccc(-c2nc3ccccc3n2S(=O)(=O)CC)cn1 [Compound 1-49] | D or higher
CCS(=O)(=O)n1c(-c2ccc(OC3CCCC3)nc2)nc2ccccc21 [Compound 1-50] | D or higher
CCS(=O)(=O)n1c(-c2ccc(OC3CCCCCC3)nc2)nc2ccccc21 [Compound 1-51] | D or higher
CCS(=O)(=O)n1c(-c2cncc(OCC(F)(F)C(F)(F)F)c2)nc2ccccc21 [Compound 3-1] | D or higher
CCCOc1ccc(-c2nc3ccccc3n2S(=O)(=O)CC)cn1 [Compound 5-1] | D or higher
CCS(=O)(=O)n1c(-c2ccc(OC(C)C)nc2)nc2ccccc21 [Compound 5-2] | D or higher
CCS(=O)(=O)n1c(-c2ccc(OC3CCCCC3)nc2)nc2ccccc21 [Compound 5-3] | D or higher
CCS(=O)(=O)n1c(-c2ccc(OCCC(C)(C)C)nc2)nc2ccccc21 [Compound 5-4] | D or higher
CCS(=O)(=O)n1c(-c2ccc(OCCOC)nc2)nc2ccccc21 [Compound 5-5] | D or higher
CCS(=O)(=O)n1c(-c2ccc(OCCSC)nc2)nc2ccccc21 [Compound 5-6] | D or higher
CCS(=O)(=O)n1c(-c2ccc(Oc3ccc([Si](C)(C)C)cc3)nc2)nc2ccccc21 [Compound 5-8] | D or higher
CCS(=O)(=O)n1c(-c2cnc(OCC(F)(F)F)c(Cl)c2)nc2ccccc21 [Compound 5-9] | D or higher
CCS(=O)(=O)n1c(-c2cnc(OCC(F)(F)C(F)F)c(Cl)c2)nc2ccccc21 [Compound 5-10] | D or higher
CCS(=O)(=O)n1c(-c2ccc(OCCC(F)(F)C(F)(F)C(F)(F)C(F)(F)C(F)(F)C(F)(F)F)nc2)nc2ccccc21 [Compound 5-11] | D or higher
CCS(=O)(=O)n1c(-c2ccc(OCC(F)(F)C(F)(F)C(F)(F)C(F)(F)C(F)(F)C(F)F)nc2)nc2ccccc21 [Compound 5-12] | D or higher
CCCSc1ccc(-c2nc3ccccc3n2S(=O)(=O)CC)cn1 [Compound 5-14] | D or higher
CCCCSc1ccc(-c2nc3ccccc3n2S(=O)(=O)CC)cn1 [Compound 5-17] | D or higher
CCS(=O)(=O)n1c(-c2ccc(SC3CCCC3)nc2)nc2ccccc21 [Compound 5-18] | D or higher
CCS(=O)(=O)n1c(-c2ccc(SC3CCCCC3)nc2)nc2ccccc21 [Compound 5-19] | D or higher
CCS(=O)(=O)n1c(-c2ccc(SCC3CC3)nc2)nc2ccccc21 [Compound 5-20] | D or higher
CCS(=O)(=O)n1c(-c2ccc(SCc3ccccc3)nc2)nc2ccccc21 [Compound 5-21] | D or higher
CCCCN(CCCC)c1ccc(-c2nc3ccccc3n2S(=O)(=O)CC)cn1 [Compound 5-24] | D or higher
CCCCN(C)c1ccc(-c2nc3ccccc3n2S(=O)(=O)CC)cn1 [Compound 5-25] | D or higher

tested on: Diamondback moth (Plutella xylostella); assay: Insecticidal test on diamondback moth, dip of Chinese cabbage seedlings with laid eggs; assay type: in vivo; details: 144 h, dip about 30 seconds, 25° C., 6 days after dip treatment, hatched larvae counted, read-out: insecticidal efficacy (corrected mortality rate) activity level
Excerpt: Insecticidal Test on Diamondback Moth (Plutella xylostella)
Adults of diamondback moth were released onto Chinese cabbage seedlings and allowed to lay eggs thereon. At 2 days after the release of the adults, the Chinese cabbage seedlings with laid eggs were dipped for about 30 seconds in agrochemical dispersions diluted to 500 ppm, each of which contained a different benzimidazole compound represented by the general formula (1) of the present invention or salt thereof as an active ingredient. After air-dried, the seedlings were kept in a thermostatic chamber at 25° C. At 6 days after the dip treatment, the number of hatched larvae per plot was counted, the corrected mortality rate was calculated according to the formula shown below, and the insecticidal efficacy was evaluated according to the criteria of Test Example 2. This test was conducted in triplicate using 10 adults of diamondback moth per plot. Corrected mortality rate (%)=(Number of hatched larvae in a non-treatment plot−Number of hatched larvae in a treatment plot)/(Number of hatched larvae in a non-treatment plot)×100 [Expression 3]

SMILES | mortality at 500 ppm
CCS(=O)(=O)n1c(-c2ccc(OCC(F)(F)C(F)(F)F)nc2)nc2ccccc21 [Compound 1-2, 2-(2-(2,2,3,3,3-pentafluoropropyloxy)pyridin-5-yl)-1-ethanesulfonyl benzimidazole] | 100%
